From PMC12640663 (Chemmedchem, 2025)

Columns and labels:
HepG2 cells = assay: Cell viability with crystal violet; assay type: cell-based; details: 1 and 25 µM, 24 h
Protocol: Subsequently, we evaluated the same compounds in a HepG2 insulin‐resistant model.
A 96‐well plate was seeded with 3,000 cells per well and incubated for 24 h. Afterward, the cells were treated with test compounds at various concentrations for 24 h. After incubation, the media was removed, and 100 µL of 1% glutaraldehyde was added for 15 min. Afterward, the liquid was removed, and 50 µL of 0.5% crystal violet (dissolved in 25% methanol) was added for 30 min. The crystal violet staining solution was removed, and the plate was thoroughly washed with tap water. The precipitate was dissolved in a 10% acetic acid solution and mixed for 15 min. The absorbance was then measured at 590 nm using a plate reader (xMark Microplate Spectrophotometer—Bio‐Rad).
Figure S59. Cell viability assessment by crystal violet staining. HepG2 cell viability was evaluated
after treatment with the respective compounds at concentrations of 1 and 25 µM for 24 hours. Bar
graphs represent mean ± SEM.

hPTP1B1–400 = biological target: T1, hPTP1B1–400 (Homo sapiens, UniProt P18031); assay: PTP1B activity assay, long form hPTP1B1–400 (p‐NPP); assay type: biochemical; design: hPTP1B1–400 (the long form with an intrinsically disordered C‐terminal regulatory domain); details: for IC50: ± S.D, p‐NPP substrate, 15 min at 37 °C, triplicate
T1 sequence (P18031 1-400): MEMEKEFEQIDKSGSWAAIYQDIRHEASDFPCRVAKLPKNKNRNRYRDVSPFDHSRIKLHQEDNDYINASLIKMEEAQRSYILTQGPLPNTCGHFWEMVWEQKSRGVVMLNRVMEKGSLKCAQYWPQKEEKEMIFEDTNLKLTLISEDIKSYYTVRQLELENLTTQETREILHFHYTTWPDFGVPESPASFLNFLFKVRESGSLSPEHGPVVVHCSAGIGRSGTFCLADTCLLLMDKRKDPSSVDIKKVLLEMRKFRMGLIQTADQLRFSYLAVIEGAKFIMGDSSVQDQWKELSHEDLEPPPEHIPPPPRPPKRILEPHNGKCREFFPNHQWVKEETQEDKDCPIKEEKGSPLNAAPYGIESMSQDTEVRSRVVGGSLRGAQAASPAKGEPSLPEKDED
Protocol: (§1) The inhibitory activity of PTP1B was assessed using two enzyme variants: hPTP1B1–285 (the short form with an N‐terminal catalytic domain) and hPTP1B1–400 (the long form with an intrinsically disordered C‐terminal regulatory domain). […] According to Coronel‐Tovar et al., the disordered region of the C‐terminal domain plays a crucial role in modulating PTP1B enzymatic activity.^[ [30] ^] […] Different concentrations of the compounds were evaluated to determine their IC50 values (Table 1 ).
(§2) Recombinant human protein tyrosine phosphatase 1B, consisting of 400 and 285 amino acid residues, was used.^[ [35] ^] […] Aliquots of 0–10 µL of the test compounds (triplicate) were taken and incubated for 15 min at 37 °C with 85 µL of Tris buffer solution (50 mM, pH 6.8) containing PTP1B enzyme and 5 µL of p‐nitrophenyl phosphate substrate (p‐NPP, 10 mM). Absorbance was then measured at a wavelength of 405 nm. The inhibitory activity was determined according to Equation (1). (1) % PTP1B=(A405b/A405c)×100 where % PTP1B: Is the percentage of inhibition. A 405c: Is the corrected absorbance of the blank (A 405initial–A 405final). A 405b: Is the corrected absorbance of the compounds (A 405control–A 405compound).

TCPTP = biological target: T2, TCPTP (Homo sapiens, UniProt P17706); assay: T‐cell protein tyrosine phosphatase (TCPTP) activity assay (p‐NPP); assay type: biochemical; details: for TCPTP inhibition (in words): up to 100 μM; for IC50: ± S.D, assessed up to 100 μM, read-out: TCPTP IC50
T2 sequence (P17706 1-415): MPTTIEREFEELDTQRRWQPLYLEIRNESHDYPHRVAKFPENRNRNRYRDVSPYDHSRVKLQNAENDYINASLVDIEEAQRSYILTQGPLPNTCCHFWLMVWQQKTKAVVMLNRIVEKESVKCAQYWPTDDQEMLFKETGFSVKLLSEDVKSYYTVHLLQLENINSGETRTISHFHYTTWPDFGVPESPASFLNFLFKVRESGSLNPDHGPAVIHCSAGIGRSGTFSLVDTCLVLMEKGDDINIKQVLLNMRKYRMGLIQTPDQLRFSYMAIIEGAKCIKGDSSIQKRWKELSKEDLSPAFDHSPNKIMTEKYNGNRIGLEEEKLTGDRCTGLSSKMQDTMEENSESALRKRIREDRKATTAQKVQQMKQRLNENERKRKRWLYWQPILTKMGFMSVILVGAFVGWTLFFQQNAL
Protocol: The effectiveness and safety of protein tyrosine phosphatase (PTP) inhibitors depend on their specificity. PTP1B and TCPTP serve different functions: PTP1B is involved in metabolism and cancer, while TCPTP regulates immune function. Inhibiting TCPTP could impact the immune response, whereas inhibiting PTP1B may benefit metabolic diseases without these side effects.^[ [20] ^, [34] ^, [35] ^] […] These compounds were assessed up to 100 μM (Table 1).
TCPTP enzyme reported by Mendoza et al. was used for this assay. […] Aliquots of 0–10 µL (triplicate) of the newly synthesized compounds, positive control, and solvent were taken. These were incubated with 85 µL of enzyme solution (Tris, 50 mM, pH 6.8, TCPTP) and 5 µL of substrate (p‐NPP, 10 mM) for 15 min at 37 °C.

[1] = design: method as in PMID 37628991; details: cited from earlier work
[2] = test system: streptozotocin‐induced diabetic rats; design: method as in PMID 37628991; details: cited from earlier work
PTP1B = details: cited from earlier work
hPTP1B1–285 = biological target: T3, hPTP1B1–285 (Homo sapiens, UniProt P18031); assay: PTP1B activity assay, short form hPTP1B1–285 (p‐NPP); assay type: biochemical; details: ± S.D; p‐NPP substrate, 15 min at 37 °C
T3 construct: hPTP1B1–285 (the short form with an N‐terminal catalytic domain)
T3 sequence (P18031 1-285): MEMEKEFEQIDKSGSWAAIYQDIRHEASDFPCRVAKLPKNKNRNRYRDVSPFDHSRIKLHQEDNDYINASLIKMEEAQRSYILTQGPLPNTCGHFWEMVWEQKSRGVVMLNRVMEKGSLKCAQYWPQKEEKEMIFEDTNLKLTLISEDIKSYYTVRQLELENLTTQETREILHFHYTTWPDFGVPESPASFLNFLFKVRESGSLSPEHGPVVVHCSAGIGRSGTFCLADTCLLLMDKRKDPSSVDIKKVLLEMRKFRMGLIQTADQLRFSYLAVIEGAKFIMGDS
Protocol: as §1
To do so, these terpenoids were tested against hPTP1B1–285.
as §2

[3] = streptozotocin‐induced diabetic rats

CC1(C(=O)O)CCC2(C)CCC3(C)C(=CC(=O)C4C5(C)Cc6c([nH]c7ccc(C(F)(F)F)cc67)C(C)(C)C5CCC43C)C2C1 (centres unmarked) [FC‐114]
HepG2 cell viability (HepG2 cells): did not compromise HepG2 cell viability
HepG2 cell viability (HepG2 cells; listed as FC-114): No significant differences
IC50 (hPTP1B1–400): 0.48 ± 0.006 µM
TCPTP inhibition (in words) (TCPTP): did not inhibit TCPTP
IC50 (TCPTP): > 100 µM
doses at which safe [1]: below 2000 mg kg^−1
antidiabetic activity [2]: showed antidiabetic activity
insulin levels ([2]; streptozotocin‐induced diabetic rats, compared with glibenclamide): increased insulin levels more than glibenclamide
HDL cholesterol [2, 3]: without affecting HDL cholesterol
total cholesterol levels [2, 3]: significantly reduced total cholesterol levels
times better potency against PTP1B than 18β‐GA (PTP1B): 25 times
type of PTP1B inhibition (PTP1B): noncompetitive inhibitor

Cc1ccc(-n2ncc3c2C(C)(C)C2CCC4(C)C(C(=O)C=C5C6CC(C)(C(=O)O)CCC6(C)CCC54C)C2(C)C3)cc1 (centres unmarked) [FC‐122]
IC50 (hPTP1B1–285): 25.1 ± 0.85 µM
HepG2 cell viability (HepG2 cells): did not compromise HepG2 cell viability
HepG2 cell viability (HepG2 cells; listed as FC-122): No significant differences
fold more potent than the alpha epimer (hPTP1B1–400; beta epimer vs alpha epimer (FC‐114 vs 3c, FC‐122 vs 5c), hPTP1B1–400 IC50): 1.3 fold
IC50 (hPTP1B1–400): 1.15 ± 0.04 µM
TCPTP inhibition (in words) (TCPTP): did not inhibit TCPTP
IC50 (TCPTP): > 100 µM
doses at which safe [1]: below 2000 mg kg^−1
antidiabetic activity [2]: showed antidiabetic activity
times better potency against PTP1B than 18β‐GA (PTP1B): 14 times
type of PTP1B inhibition (PTP1B): uncompetitive inhibitor
